Results on 75 compounds are retold here after the RepoRT retention time repository (doi:10.1021/acs.analchem.7b00925).

This data set can be described thus: HILIC, Merck SeQuant ZIC-HILIC, 100 × 2.1 mm, 3.5 µm, 25 °C, 0.3 mL/min, estimated dead time 0.73 min; A: water + 0.1% formic acid, pH 3; B: acetonitrile + 0.1% formic acid, pH 3; gradient (min/%B) 0/95 1.5/95 13.5/40 15.5/40 29.7/25 33.5/25 34.5/95 41.5/95. As to conditions: stereoisomer not certain.
As to `CC(=O)NC(Cc1cnc[nH]1)C(=O)O` (stereo not given) [N,N-Acetylhistidine], the LC retention time is 8.16 min.

For the compound `CC(=O)N[C@H]1C(O)O[C@H](CO)[C@@H](O)[C@@H]1O` (stereo partly drawn) [N-Acetyl-D-glucosamine], the LC retention time is 6.24 min.

`CC(=O)N[C@@H](CC(=O)O)C(=O)O` [N-Acetyl-L-aspartic acid]: the LC retention time is 4.31 min.

For the compound `CC(=O)NC(CCCN)C(=O)O` (stereo not given) [N-Acetyl-ornithine], the LC retention time is 8.65 min.

`CC(=O)NC(CCC[NH+]=C(N)N)C(=O)[O-]` (stereo not given) [N-Acetylarginine]: the LC retention time was 8.35 min.

As for `CC(=O)NC1C(O)CC(O)(C(=O)O)OC1C(O)C(O)CO` (stereo not given) [N-Acetylneuraminic acid], the LC retention time was 7.06 min.

In the case of `CC(=O)NC(CCCC[NH3+])C(=O)[O-]` (stereo not drawn) [N-Alpha-acetyllysine], the LC retention time is 8.42 min.

Regarding `O=C(O)CNC(=O)C=Cc1ccccc1` [N-Cinnamoylglycine], the LC retention time is 1.34 min.

With `CN1CCC[C@H]1C(=O)O` [N-Methyl-L-proline], the LC retention time was 7.26 min.

For `CNC(=O)c1cccnc1` [N-Methylnicotinamide], the LC retention time is 2.26 min.

As to `CC(=O)NCCc1c[nH]c2ccc(O)cc12` [N-acetyl-5-hydroxytryptamine], the LC retention time was 2.03 min.

As to `CC(=O)NC(CCC(=O)O)C(=O)O` (stereo not given) [N-acetylglutamate], the LC retention time was 3.71 min.

In the case of `CC(=O)NC(Cc1ccccc1)C(=O)O` (stereo not given) [N-acetylphenylalanine], the LC retention time was 1.58 min.

As for `CC(=O)NCCCCN` [N-acetylputrescine], the LC retention time was 8.56 min.

In the case of `CSCCC(NC=O)C(=O)O` (stereo not given) [N-formylmethionine], the LC retention time is 1.85 min.

Take `CN[C@H](CC(=O)O)C(=O)O` [N-methyl-D-aspartic acid]: the LC retention time was 7.39 min.

For `CNCCc1cnc[nH]1` [Na-methylhistamine], the LC retention time is 15.2 min.

`NC(Cc1ccc(O)c([N+](=O)[O-])c1)C(=O)O` (stereo not given) [Nitrotyrosine]: the LC retention time is 6.1 min.

Take `NCC(O)c1ccc(O)c(O)c1` (stereo not given) [Noradrenaline]: the LC retention time was 9.31 min.

On to `CCCC(C(=O)[O-])[N+](C)(C)C` (stereo not given) [Norvaline betaine], for which the LC retention time is 6.15 min.

In the case of `NCC(O)c1ccc(O)cc1` (stereo not given) [Octopamine], the LC retention time is 7.57 min.

With `CCC(NC(=O)CCC(N)C(=O)O)C(=O)NCC(=O)O` (stereo not given) [Ophthalmic acid], the LC retention time is 7.85 min.

Turning to `NCCCC(N)C(=O)O` (stereo not given) [Ornithine], the LC retention time is 12.5 min.

As to `O=S(=O)(O)CCN1CCN(CCS(=O)(=O)O)CC1` [PIPES], the LC retention time is 9.12 min.

As for `CC(C)(CO)C(O)C(=O)NCCC(=O)O` (stereo not given) [Pantothenic acid], the LC retention time was 2.31 min.

For `CC(C)CC(NC(=O)C(C)NC(=O)C(N)Cc1ccccc1)C(=O)O` (stereo not drawn) [Phe-Ala-Leu], the LC retention time is 5.8 min.

Turning to `CC(NC(=O)C(N)Cc1ccccc1)C(=O)NC(CO)C(=O)O` (stereo not drawn) [Phe-Ala-Ser], the LC retention time was 7.49 min.

Consider `NC(=O)CCC(NC(=O)Cc1ccccc1)C(=O)O` (stereo not given) [Phenylacetylglutamine], for which the LC retention time was 2.63 min.

On to `C[N+](C)(C)[C@@H](Cc1ccccc1)C(=O)[O-]` [Phenylalanine betaine], for which the LC retention time is 5.5 min.

With `NC(C(=O)O)c1ccccc1` (stereo not given) [Phenylglycine], the LC retention time is 6.41 min.

As for `CN(CC(=O)O)C(N)=NP(=O)(O)O` [Phosphocreatine], the LC retention time is 7.7 min.

With `C=C(OP(=O)(O)O)C(=O)[O-]` [Phosphoenol pyruvate], the LC retention time was 6.22 min.

For `O=C(O)c1ccccc1C(=O)O` [Phthalic acid], the LC retention time was 2.12 min.

In the case of `O=C(C=CC=Cc1ccc2c(c1)OCO2)N1CCCCC1` [Piperine], the LC retention time is 0.94 min.

As to `O=C(NCC(=O)N1CCCC1C(=O)O)C1CCCN1` (stereo not given) [Proline-glycine-proline], the LC retention time is 7.66 min.

With `O=C(O)CNC(=O)C1CCCN1` (stereo not given) [Proline-glycine], the LC retention time was 7.71 min.

On to `O=C(O)C1CC(O)CN1C(=O)C1CCCN1` (stereo not given) [Proline-hydroxyproline], for which the LC retention time is 8.4 min.

For `CCC(=O)OC(CC(=O)[O-])C[N+](C)(C)C` (stereo not given) [Propionylcarnitine], the LC retention time is 4.5 min.

On to `CN1CCCN=C1C=Cc1cccs1` [Pyrantel], for which the LC retention time is 2.3 min.

Turning to `Cc1ncc(CO)c(C=O)c1O` [Pyridoxal], the LC retention time is 4.94 min.

As for `Cc1ncc(CO)c(CN)c1O` [Pyridoxamine], the LC retention time is 13.1 min.

As to `Cc1ncc(CO)c(CO)c1O` [Pyridoxine], the LC retention time is 7.08 min.

With `O=C(O)CNC(=O)C1CCC(=O)N1` (stereo not given) [Pyroglutamylglycine], the LC retention time is 4.32 min.

On to `C1CCNC1` [Pyrrolidine], for which the LC retention time is 7.71 min.

Take `O=C(O)c1ccc2ccccc2n1` [Quinaldic acid]: the LC retention time is 1.24 min.

As for `OCC1OC(O)C(O)C1O` (stereo not given) [Ribose], the LC retention time is 5 min.

In the case of `Nc1ncnc2c1ncn2C1OC(CSCCC([NH3+])C(=O)[O-])C(O)C1O` (stereo not given) [S-adenosylhomocysteine], the LC retention time is 10.1 min.

With `NC(CCCCNC(CCC(=O)O)C(=O)O)C(=O)O` (stereo not given) [Saccharopine], the LC retention time is 10.1 min.

As for `CC(C)(C)NCC(O)c1ccc(O)c(CO)c1` (stereo not given) [Salbutamol], the LC retention time was 6.57 min.

As for `CNCC(=O)O` [Sarcosine], the LC retention time is 7.67 min.

For the compound `CC(O)C(=O)C1=Nc2c(nc(N)[nH]c2=O)NC1` (stereo not given) [Sepiapterin], the LC retention time was 4.63 min.

For `NCCc1c[nH]c2ccc(O)cc12` [Serotonin], the LC retention time is 7.73 min.

Take `OCC1OC(OC2(CO)OC(CO)C(O)C2O)C(O)C(O)C1O` (stereo not given) [Sucrose]: the LC retention time is 7.32 min.

Take `NCCS(=O)(=O)O` [Taurine]: the LC retention time is 7.44 min.

Regarding `CC(CCC(=O)NCCS(=O)(=O)O)C1CCC2C3C(O)CC4CC(O)CCC4(C)C3CC(O)C12C` (stereo not given) [Taurocholic acid], the LC retention time is 4.75 min.

As for `O=c1cc[nH]c(=S)[nH]1` [Thiouracil], the LC retention time was 1.93 min.

In the case of `Cc1cn(C2CC(O)C(CO)O2)c(=O)[nH]c1=O` (stereo not given) [Thymidine], the LC retention time is 2.58 min.

Regarding `C[n+]1cccc(C(=O)[O-])c1` [Trigonelline], the LC retention time was 7.26 min.

Consider `C[N+](C)(C)[O-]` [Trimethylamine N-oxide], for which the LC retention time is 6.67 min.

Regarding `NCCc1c[nH]c2ccccc12` [Tryptamine], the LC retention time is 6.1 min.

On to `C[N+](C)(C)C(Cc1c[nH]c2ccccc12)C(=O)[O-]` (stereo not given) [Tryptophan betaine], for which the LC retention time was 5.65 min.

As to `NCCc1ccc(O)cc1` [Tyramine], the LC retention time was 6.81 min.

As to `O=c1ccn(C2OC(COP(=O)(O)O)C(O)C2O)c(=O)[nH]1` (stereo not given) [Uridine mono-phosphate], the LC retention time is 6.99 min.

On to `O=c1ccn(C2OC(CO)C(O)C2O)c(=O)[nH]1` (stereo not given) [Uridine], for which the LC retention time is 4.98 min.

For `CC(C)C(C(=O)O)[N+](C)(C)C` (stereo not given) [Valine betaine], the LC retention time was 5.99 min.

In the case of `O=c1[nH]c(=O)c2ncn(C3OC(CO)C(O)C3O)c2[nH]1` (stereo not given) [Xanthosine], the LC retention time was 5.36 min.

With `OC1COC(O)C(O)C1O` (stereo not given) [Xylose], the LC retention time is 6.03 min.

Turning to `NC(CCC(=O)O)C(=O)NC(Cc1ccc(O)cc1)C(=O)O` (stereo not given) [a-glutamyl-tyrosine], the LC retention time is 7.57 min.

For the compound `CC(CCC(=O)O)C1CCC2C3C(O)CC4CC(O)CCC4(C)C3CC(O)C12C` (stereo not given) [cholic acid], the LC retention time was 1.96 min.

Consider `O=C(O)C=C(CC(=O)O)C(=O)O` [cis-aconitate], for which the LC retention time was 4.23 min.

Consider `O=C(O)C=Cc1cnc[nH]1` [cis-urocanic acid], for which the LC retention time was 5 min.

Consider `Nc1cccc(C(=O)O)c1` [m-Aminobenzoic acid], for which the LC retention time is 2.09 min.

With `O=C(O)CNC(=O)c1ccccc1O` [o-Hydroxyhippuric acid], the LC retention time was 1.44 min.

Consider `Nc1ccc(C(=O)O)cc1` [p-Aminobenzoic acid], for which the LC retention time was 1.53 min.

For the compound `COc1cc(/C=C/C(=O)O)ccc1O` [trans-Ferulic acid], the LC retention time is 1.39 min.
